Holding throughout (test): 3H-2-deoxyglucose uptake inhibition in L929 cells
Common to all, as to assay type: cell-based

The target in assay [1] is T1, GLUT1 (Mus musculus, UniProt P17809).
T1 sequence (P17809 1-492): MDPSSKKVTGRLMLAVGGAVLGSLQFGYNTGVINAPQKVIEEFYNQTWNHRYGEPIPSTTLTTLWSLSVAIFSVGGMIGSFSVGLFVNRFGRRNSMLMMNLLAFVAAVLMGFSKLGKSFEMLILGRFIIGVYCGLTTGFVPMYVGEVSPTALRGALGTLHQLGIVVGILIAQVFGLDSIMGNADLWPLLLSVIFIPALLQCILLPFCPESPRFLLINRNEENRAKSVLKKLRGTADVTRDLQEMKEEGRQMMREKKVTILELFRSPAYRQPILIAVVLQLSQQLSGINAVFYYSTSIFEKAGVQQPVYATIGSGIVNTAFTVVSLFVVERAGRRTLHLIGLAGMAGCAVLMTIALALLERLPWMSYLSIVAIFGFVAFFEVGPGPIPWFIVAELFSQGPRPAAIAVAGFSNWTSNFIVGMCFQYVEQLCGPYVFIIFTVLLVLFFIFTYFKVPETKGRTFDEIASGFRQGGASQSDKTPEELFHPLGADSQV

The target of assay [2] is T1, GLUT1. The source holds these as a separate data set.
For assay [3], the target named is T1, GLUT1. The source holds these as a separate data set.

Where two headings read alike, the source gives them in different places.

In PMC6035882 (Biochimie, 2018) one finds IC50 data, which are given here for three compounds.

As a reminder, the IC50 is the concentration that inhibits the measured activity by half. Low readings indicate greater potency, high ones weaker potency.

Take `Cc1c(NC(=O)c2cc(C(N)=O)nc3cc(F)ccc23)c(C(F)(F)F)nn1Cc1ccc(C#N)cc1` [BAY-876]: the IC50 on GLUT1 [1] is 0.02 µM.
On GLUT1 [2], `O=C(Oc1cccc(F)c1OC(=O)c1cccc(O)c1)c1cccc(O)c1` [WZB-117] had a half-maximal inhibitory concentration (IC50) of 8.5 µM.
The compound `O=c1c(O)c(-c2ccc(O)c(O)c2)oc2cc(O)cc(O)c12` [quercetin, 3,3′,4′5,7-pentahydroxyflavone] displayed an IC50 on GLUT1 [3] of 8.5 µM.
